Data: ChEMBL document CHEMBL5154770, “Discovery of novel ataxia telangiectasia mutated (ATM) kinase modulators: Computational simulation, biological evaluation and cancer combinational chemotherapy study” (Eur J Med Chem, 2022)
pIC50: −log10 of the molar value. Calls of active or inactive are those of the source. No cut-off for these calls is given here.

Experiments:
MCF7 [1] = assay: Antagonistic cytotoxicity against human MCF7 cells measured after 2 days in presence of 5 uM 2(((24(2,4-dichlorobenzyl)oxy)naphthalen-1-yl)methyl)amino)ethan-1-ol by SRB assay; format: functional, cell-based; settings: MCF7, 48 h
MCF7 [2] = assay: Antagonistic cytotoxicity against human MCF7 cells measured after 2 days in presence of 5 uM KU55933 by SRB assay; format: functional, cell-based; settings: MCF7, 48 h
MCF7 [3] = assay: Antagonistic cytotoxicity against human MCF7 cells measured after 2 days in presence of 5 uM KU60019 by SRB assay; format: functional, cell-based; settings: MCF7, 48 h
MCF7 [4] = assay: Antagonistic cytotoxicity against human MCF7 cells measured after 2 days in presence of 50 nM AZD0156 by SRB assay; format: functional, cell-based; settings: MCF7, 48 h
MCF7 [5] = assay: Antagonistic cytotoxicity against human MCF7 cells assessed as combination index measured after 2 days in presence of 5 uM 2(((24(2,4-dichlorobenzyl)oxy)naphthalen-1-yl)methyl)amino)ethan-1-ol by SRB assay; format: functional; settings: time 2 day
MCF7 [6] = assay: Antagonistic cytotoxicity against human MCF7 cells assessed as combination index measured after 2 days in presence of 5 uM KU55933 by SRB assay; format: functional; settings: time 2 day
MCF7 [7] = assay: Antagonistic cytotoxicity against human MCF7 cells assessed as combination index measured after 2 days in presence of 5 uM KU60019 by SRB assay; format: functional; settings: time 2 day
MCF7 [8] = assay: Antagonistic cytotoxicity against human MCF7 cells assessed as combination index measured after 2 days in presence of 50 nM AZD0156 by SRB assay; format: functional; settings: time 2 day
SW480 [9] = assay: Antagonistic cytotoxicity against human SW480 cells measured after 3 days in presence of 5 uM 2(((24(2,4-dichlorobenzyl)oxy)naphthalen-1-yl)methyl)amino)ethan-1-ol by SRB assay; format: functional, cell-based; settings: SW480, 72 h
SW480 [10] = assay: Antagonistic cytotoxicity against human SW480 cells measured after 3 days in presence of 5 uM KU55933 by SRB assay; format: functional, cell-based; settings: SW480, 72 h
SW480 [11] = assay: Antagonistic cytotoxicity against human SW480 cells measured after 3 days in presence of 5 uM KU60019 by SRB assay; format: functional, cell-based; settings: SW480, 72 h
SW480 [12] = assay: Antagonistic cytotoxicity against human SW480 cells assessed as combination index measured after 3 days in presence of 5 uM 2(((24(2,4-dichlorobenzyl)oxy)naphthalen-1-yl)methyl)amino)ethan-1-ol by SRB assay; format: functional; settings: time 3 day
SW480 [13] = assay: Antagonistic cytotoxicity against human SW480 cells assessed as combination index measured after 3 days in presence of 5 uM KU55933 by SRB assay; format: functional; settings: time 3 day
SW480 [14] = assay: Antagonistic cytotoxicity against human SW480 cells assessed as combination index measured after 3 days in presence of 5 uM KU60019 by SRB assay; format: functional; settings: time 3 day
SW480 [15] = assay: Antagonistic cytotoxicity against human SW480 cells assessed as combination index measured after 3 days in presence of 50 nM AZD0156 by SRB assay; format: functional; settings: time 3 day
MCF7 [16] = assay: Cytotoxicity against human MCF7 cells measured after 6 days in presence of 5 uM 2(((24(2,4-dichlorobenzyl)oxy)naphthalen-1-yl)methyl)amino)ethan-1-ol by SRB assay; format: functional, cell-based; settings: MCF7, 144 h
MCF7 [17] = assay: Synergistic cytotoxicity against human MCF7 cells measured after 6 days in presence of 5 uM KU60019 by SRB assay; format: functional, cell-based; settings: MCF7, 144 h
MCF7 [18] = assay: Synergistic cytotoxicity against human MCF7 cells measured after 6 days in presence of 50 nM AZD0156 by SRB assay; format: functional, cell-based; settings: MCF7, 144 h
MCF7 [19] = assay: Synergistic cytotoxicity against human MCF7 cells assessed as combination index measured after 6 days in presence of 50 nM AZD0156 by SRB assay; format: functional; settings: time 6 day
SW480 [20] = assay: Cytotoxicity against human SW480 cells measured after 9 days in presence of 5 uM 2(((24(2,4-dichlorobenzyl)oxy)naphthalen-1-yl)methyl)amino)ethan-1-ol by SRB assay; format: functional, cell-based; settings: SW480, 216 h
SW480 [21] = assay: Additive cytotoxicity against human SW480 cells measured after 9 days in presence of 5 uM KU55933 by SRB assay; format: functional, cell-based; settings: SW480, 216 h
SW480 [22] = assay: Synergistic cytotoxicity against human SW480 cells measured after 9 days in presence of 5 uM KU60019 by SRB assay; format: functional, cell-based; settings: SW480, 216 h
SW480 [23] = assay: Additive cytotoxicity against human SW480 cells assessed as combination index measured after 9 days in presence of 5 uM KU55933 by SRB assay; format: functional; settings: time 9 day
SW480 [24] = assay: Synergistic cytotoxicity against human SW480 cells assessed as combination index measured after 9 days in presence of 50 nM AZD0156 by SRB assay; format: functional; settings: time 9 day
MCF7 [25] = assay: Synergistic cytotoxicity against human MCF7 cells in presence of 10 uM 3-Chloro-4-methoxy-N-((4-(oxazolo[4,5-b]pyridin-2-yl)phenyl)carbamothioyl)benzamide measured after 2 days by SRB assay; format: functional, cell-based; settings: MCF7, 48 h
MCF7 [26] = assay: Antagonistic cytotoxicity against human MCF7 cells in presence of 10 uM 3-Chloro-4-methoxy-N-((4-(oxazolo[4,5-b]pyridin-2-yl)phenyl)carbamothioyl)benzamide measured after 6 days by SRB assay; format: functional, cell-based; settings: MCF7, 144 h
MCF7 [27] = assay: Antagonistic cytotoxicity against human MCF7 cells assessed as combination index in presence of 10 uM 3-Chloro-4-methoxy-N-((4-(oxazolo[4,5-b]pyridin-2-yl)phenyl)carbamothioyl)benzamide measured after 6 days by SRB assay; format: functional; settings: time 6 day
SW480 [28] = assay: Antagonistic cytotoxicity against human SW480 cells measured after 9 days in presence of 3-Chloro-4-methoxy-N-((4-(oxazolo[4,5-b]pyridin-2-yl)phenyl)carbamothioyl)benzamide by SRB assay; format: functional, cell-based; settings: time 9.0 day
NCI-H1299 [29] = assay: Cytotoxicity against human NCI-H1299 cells measured in presence of 5 uM 2(((2-(2,4-dichlorobenzyl)oxy)naphthalen-1-yl)methyl)amino)ethan-1-ol after 2 days by SRB assay; format: functional, cell-based; settings: NCI-H1299, 48 h
NCI-H1299 [30] = assay: Additive cytotoxicity against human NCI-H1299 cells measured in presence of 5 uM KU55933 after 2 days by SRB assay; format: functional, cell-based; settings: NCI-H1299, 48 h
NCI-H1299 [31] = assay: Additive cytotoxicity against human NCI-H1299 cells assessed as combination index measured in presence of 5 uM KU55933 after 2 days by SRB assay; format: functional; settings: time 2 day
NCI-H1299 [32] = assay: Cytotoxicity against human NCI-H1299 cells measured in presence of 5 uM 2(((2-(2,4-dichlorobenzyl)oxy)naphthalen-1-yl)methyl)amino)ethan-1-ol after 6 days by SRB assay; format: functional, cell-based; settings: NCI-H1299, 144 h
NCI-H1299 [33] = assay: Additive cytotoxicity against human NCI-H1299 cells measured in presence of 5 uM KU55933 after 6 days by SRB assay; format: functional, cell-based; settings: NCI-H1299, 144 h
NCI-H1299 [34] = assay: Synergistic cytotoxicity against human NCI-H1299 cells measured in presence of 5 uM KU60019 after 6 days by SRB assay; format: functional, cell-based; settings: NCI-H1299, 144 h
NCI-H1299 [35] = assay: Synergistic cytotoxicity against human NCI-H1299 cells measured in presence of 50 nM AZD0156 after 6 days by SRB assay; format: functional, cell-based; settings: NCI-H1299, 144 h
NCI-H1299 [36] = assay: Additive cytotoxicity against human NCI-H1299 cells assessed as combination index measured in presence of 5 uM KU55933 after 6 days by SRB assay; format: functional; settings: time 6 day
NCI-H1299 [37] = assay: Synergistic cytotoxicity against human NCI-H1299 cells assessed as combination index measured in presence of 5 uM KU60019 after 6 days by SRB assay; format: functional; settings: time 6 day
NCI-H1299 [38] = assay: Synergistic cytotoxicity against human NCI-H1299 cells assessed as combination index measured in presence of 50 nM AZD0156 after 6 days by SRB assay; format: functional; settings: time 6 day

Row | Structure (SMILES) | pIC50 (MCF7 [1]) | pIC50 (MCF7 [2]) | pIC50 (MCF7 [3]) | pIC50 (MCF7 [4]) | CI (MCF7 [5]) | CI (MCF7 [6]) | CI (MCF7 [7]) | CI (MCF7 [8]) | pIC50 (SW480 [9]) | pIC50 (SW480 [10]) | pIC50 (SW480 [11]) | CI (SW480 [12]) | CI (SW480 [13]) | CI (SW480 [14]) | CI (SW480 [15]) | pIC50 (MCF7 [16]) | pIC50 (MCF7 [17]) | pIC50 (MCF7 [18]) | CI (MCF7 [19]) | pIC50 (SW480 [20]) | other results
1 | COc1cc([C@@H]2c3cc4c(cc3[C@@H](O[C@@H]3O[C@@H]5CO[C@@H](C)O[C@H]5[C@H](O)[C@H]3O)[C@H]3COC(=O)[C@H]23)OCO4)cc(OC)c1O [ETOPOSIDE] | 4.34 | 4.23 | 4.06 | 4.20 | 2.8 | 2.7 | 4.2 | 2.8 | 5.44 | 5.46 | 5.42 | 2 | 1.4 | 1.7 | 1.3 | 6.18 | 7.22 | 6.96 | 0.19 | 7.15 | pIC50 (SW480 [21]): 7.10; pIC50 (SW480 [22]): > 8.00; CI (SW480 [23]): 0.95; CI (SW480 [24]): 0.17; pIC50 (MCF7 [25]): 4.63; pIC50 (MCF7 [26]): 6.19; CI (MCF7 [27]): 1.16; Activity (SW480 [28]): Active; pIC50 (NCI-H1299 [29]): 4.95; pIC50 (NCI-H1299 [30]): 5.03; CI (NCI-H1299 [31]): 0.98; pIC50 (NCI-H1299 [32]): 6.15; pIC50 (NCI-H1299 [33]): 6.34; pIC50 (NCI-H1299 [34]): 6.64; pIC50 (NCI-H1299 [35]): 6.62; CI (NCI-H1299 [36]): 0.91; CI (NCI-H1299 [37]): 0.77; CI (NCI-H1299 [38]): 0.39
2 | CCc1c2c(nc3ccc(OC(=O)N4CCC(N5CCCCC5)CC4)cc13)-c1cc3c(c(=O)n1C2)COC(=O)[C@]3(O)CC [IRINOTECAN] | 4.37 | 4.42 | 4.42 | 4.41 | 2.1 | 1.4 | 1.6 | 1.3 | 4.91 | 5.14 | 4.81 | 3.2 | 1.6 | 3.4 | 2.4 | 5.77 | 5.70 | 6.80 | 0.97 | 7.15 | pIC50 (SW480 [21]): 6.22; pIC50 (SW480 [22]): > 6.92; CI (SW480 [23]): 1.02; CI (SW480 [24]): 0.22; pIC50 (MCF7 [25]): 4.58; pIC50 (MCF7 [26]): 5.73; CI (MCF7 [27]): 1.16; Activity (SW480 [28]): Active; pIC50 (NCI-H1299 [29]): 4.95; pIC50 (NCI-H1299 [30]): 4.88; CI (NCI-H1299 [31]): 1.1; pIC50 (NCI-H1299 [32]): 5.74; pIC50 (NCI-H1299 [33]): 5.78; pIC50 (NCI-H1299 [34]): 6.57; pIC50 (NCI-H1299 [35]): 6.66; CI (NCI-H1299 [36]): 1.1; CI (NCI-H1299 [37]): 0.66; CI (NCI-H1299 [38]): 0.25
